Data published in patent US6747023B1 (Daiichi Pharmaceutical Co., Ltd., priority 1998, dated 2004).
Where a name gives a salt, the structure may show the parent alone.

target: T1, human FXa (Homo sapiens, UniProt P00742); assay: Measurement of FXa inhibitory action (IC50); assay type: biochemical; conditions: 0.05 U/ml human FXa, substrate S2222, absorbance at 405 nm, room temperature; read-out: Concentration (nM) of the sample at which 50% of Fxa activity is inhibited
T1 construct: purchased Cosmobio-ERL HFXa-1011
T1 sequence (P00742 235-488 limits assumed): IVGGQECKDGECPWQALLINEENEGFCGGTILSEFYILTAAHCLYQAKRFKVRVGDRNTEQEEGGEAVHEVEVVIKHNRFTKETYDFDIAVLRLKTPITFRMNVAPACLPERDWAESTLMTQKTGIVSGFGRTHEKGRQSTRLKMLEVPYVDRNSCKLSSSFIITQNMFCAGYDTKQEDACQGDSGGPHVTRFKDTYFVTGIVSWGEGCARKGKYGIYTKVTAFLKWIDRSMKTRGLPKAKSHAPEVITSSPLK
T1 sequence (P00742 41-179 partner limits assumed): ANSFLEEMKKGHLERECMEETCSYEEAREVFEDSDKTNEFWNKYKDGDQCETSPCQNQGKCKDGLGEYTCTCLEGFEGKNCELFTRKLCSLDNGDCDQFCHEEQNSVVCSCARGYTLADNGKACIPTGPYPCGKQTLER
Protocol: Measurement of FXa Inhibitory Action (IC50)
From the below-described equation, an inhibitory ratio % of each sample was determined.
Inhibitory ratio (%)=(1−OD of sample÷OD of control)×100

Molecule | IC50 [nM]
4-[(6-Chlorobenzo[b]thien-2-yl)sulfonyl]-2-(hydroxymethyl)-1-[5-(pyridin-4-yl)pyrimidin-2-yl]piperazine hydrochloride [Example A-277] | 2.7
O=C(c1ccc(-c2ccncc2)cc1)N1CCN(S(=O)(=O)c2ccc3cc(Cl)ccc3c2)CC1 [Example A-1, 1-[(6-Chloronaphthalen-2-yl)sulfonyl]-4-[4-(pyridin-4-yl)benzoyl]piperazine hydrochloride] | 123
O=C(c1cnccc1-c1ccncc1)N1CCN(S(=O)(=O)c2ccc3cc(Cl)ccc3c2)CC1 [Example A-4, hydrochloride] | 54
O=C(c1ccc(-c2ccccn2)cc1)N1CCN(S(=O)(=O)c2ccc3cc(Cl)ccc3c2)CC1 [Example A-17, 1-[(6-Chloronaphthalen-2-yl)sulfonyl]-4-[4-(pyridin-2-yl)benzoyl]piperazine hydrochloride] | 180
Cc1c(S(=O)(=O)N2CCN(C(=O)c3ccc(-c4ccncc4)cc3)CC2)sc2ccc(Cl)cc12 [Example A-83, 1-[(5-Chloro-3-methylbenzo[b]thien-2-yl)sulfonyl]-4-[4-(piridin-4-yl)benzoyl]piperazine] | 2800
O=C(c1ccc(-c2ccncc2)cc1)N1CCN(S(=O)(=O)c2cc3cc(Cl)ccc3o2)CC1 [Example A-85, 1-[(5-Chlorobenzo[b]furan-2-yl)sulfonyl]-4-[4-(pyridin-4-yl)benzoyl]piperazine] | 1000
O=C(c1ccc(-c2ccncc2)cc1)N1CCN(S(=O)(=O)c2cc3ccc(Cl)cc3o2)CC1 [Example A-86, 1-[(6-Chlorobenzo[b]furan-2-yl)sulfonyl]-4-[4-(pyridin-4-yl)benzoyl]piperazine] | > 10000
Cn1c(S(=O)(=O)N2CCN(C(=O)c3ccc(-c4ccncc4)cc3)CC2)cc2cc(Cl)ccc21 [Example A-91, 1-[(5-Chloro-1-methylindol-2-yl)sulfonyl]-4-[4-(pyridin-4-yl)benzoyl]piperazine] | 7000
O=C(c1ccc(-c2ccncc2)cc1)N1CCN(S(=O)(=O)c2cc3cc(Cl)ccc3s2)CC1 [Example A-96, 1-[(5-Chlorobenzo[b]thien-2-yl)sulfonyl]-4-[4-(pyridin-4-yl)benzoyl]piperazine hydrochloride] | 450
O=C(c1ccc(-c2ccncc2)cc1)N1CCN(S(=O)(=O)c2cc3ccc(Cl)cc3s2)CC1 [Example A-97, 1-[(6-Chlorobenzo[b]thien-2-yl)sulfonyl]-4-[4-(pyridin-4-yl)benzoyl]piperazine hydrochloride] | 82
O=C(c1ccc(-c2ccccn2)cc1)N1CCN(S(=O)(=O)c2cc3ccc(Cl)cc3s2)CC1 [Example A-98, 1-[(6-Chlorobenzo[b]thien-2-yl)sulfonyl]-4-[4-(pyridin-2-yl)benzoyl]piperazine hydrochloride] | 125
O=C(c1ccc(-c2cc[n+]([O-])cc2)cc1)N1CCN(S(=O)(=O)c2cc3ccc(Cl)cc3[nH]2)CC1 [Example A-106, 4-[4-[[4-[(6-Chloroindol-2-yl)sulfonyl]piperazin-1-yl]carbonyl]phenyl]pyridine N-oxide] | 420

Other lines, results leading:

IC50 [nM] | Molecule
1.3 | 1-[(5-Chloroindol-2-yl)sulfonyl]-4-[4-methyl-2-(pyridin-4-yl)thiazol-5-yl]piperazine [Example A-296]
16 | O=C(c1ccc(-c2ccccn2)cc1)N1CCN(S(=O)(=O)c2cc3cc(Cl)ccc3[nH]2)CC1 [Example A-90, 1-[(5-Chloroindol-2-yl)sulfonyl]-4-[4-(pyridin-2-yl)benzoyl]piperazine hydrochloride]
9.5 | O=C(c1ccc(-c2ccncc2)cc1)N1CCN(S(=O)(=O)c2cc3cc(Cl)ccc3[nH]2)CC1 [Example A-101, 1-[(5-Chloroindol-2-yl)sulfonyl]-4-[4-(pyridin-4-yl)benzoyl]piperazine]
4.7 | O=C(c1ccc(-c2cc[n+]([O-])cc2)cc1)N1CCN(S(=O)(=O)c2cc3cc(Cl)ccc3[nH]2)CC1 [Example A-107, 4-[4-[[4-[(5-Chloroindol-2-yl)sulfonyl]piperazin-1-yl]carbonyl]phenyl]pyridine N-oxide]
8.6 | O=C(c1ccc(-c2cc[n+]([O-])cc2)cc1)N1CCN(S(=O)(=O)c2cc3ccc(Cl)cc3s2)CC1 [Example A-116, 4-[4-[[4-[(6-Chlorobenzo[b]thien-2-yl)sulfonyl]piperazin-1-yl]carbonyl]phenyl]pyridine N-oxide]
14 | C#Cc1ccc2[nH]c(S(=O)(=O)N3CCN(C(=O)c4ccc(-c5cc[n+]([O-])cc5)cc4)CC3)cc2c1 [Example A-120, 4-[4-[[4-[(5-Ethynylindol-2-yl)sulfonyl]piperazin-1-yl]carbonyl]phenyl]pyridine N-oxide]
3.6 | NC(=O)CC1CN(S(=O)(=O)c2cc3cc(Cl)ccc3[nH]2)CCN1C(=O)c1ccc(-c2ccncc2)cc1 (stereo not drawn) [Example A-130, 2-Carbamoylmethyl-4-[(5-chloroindol-2-yl)sulfonyl]-1-[4-(pyridin-4-yl)benzoyl]piperazine]
19 | O=C(c1cnc(-c2ccncc2)nc1)N1CCN(S(=O)(=O)c2cc3cc(Cl)ccc3[nH]2)CC1 [Example A-131, 1-[(5-Chloroindol-2-yl)sulfonyl]-4-[[2-(pyridin-4-yl)pyrimidin-5-yl]carbonyl]piperazine]
14 | O=C(c1cnc(-c2cc[n+]([O-])cc2)nc1)N1CCN(S(=O)(=O)c2cc3cc(Cl)ccc3[nH]2)CC1 [Example A-135, 4-[5-[[4-[(5-Chloroindol-2-yl)sulfonyl]piperazin-1-yl]carbonyl]pyrimidin-2-yl]pyridine N-oxide]
38 | O=C(c1ccc(-c2ccnc(CO)c2)cc1)N1CCN(S(=O)(=O)c2ccc3cc(Cl)ccc3c2)CC1 [Example A-152, 1-[(6-Chloronaphthalen-2-yl)sulfonyl]-4-[4-(2-hydroxymethylpyridin-4-yl)benzoyl]piperazine]
28 | NCc1cc(-c2ccc(C(=O)N3CCN(S(=O)(=O)c4ccc5cc(Cl)ccc5c4)CC3)cc2)ccn1 [Example A-155, 1-[4-(2-Aminomethylpyridin-4-yl)benzoyl]-4-[(6-chloronaphthalen-2-yl)sulfonyl]piperazine hydrochloride]
10 | NC(=O)C[C@@H]1CN(S(=O)(=O)c2ccc3cc(Cl)ccc3c2)C[C@H](CC(N)=O)N1C(=O)c1ccc(-c2ccncc2)cc1 [Example A-173, cis-2,6-Bis(carbamoylmethyl)-4-[(6-chloronaphthalen-2-yl)sulfonyl]-1-[4-(pyridin-4-yl)benzoyl]piperazine]
4.7 | O=C(c1ncc(-c2cccc[n+]2[O-])cn1)N1CCN(S(=O)(=O)c2cc3cc(Cl)ccc3[nH]2)CC1 [Example A-183, 2-[2-[[4-[(5-Chloroindol-2-yl)sulfonyl]piperazin-1-yl]carbonyl]pyrimidin-5-yl]pyridine N-oxide]
6.3 | O=C(c1ncc(-c2cccc[n+]2[O-])cn1)N1CCN(S(=O)(=O)c2cc3ccc(Cl)cc3s2)CC1 [Example A-185, 2-[2-[[4-[(6-Chlorobenzo[b]thien-2-yl)sulfonyl]piperazin-1-yl]carbonyl]pyrimidin-5-yl]pyridine N-oxide]
1.9 | Cc1cc(-c2cnc(C(=O)N3CCN(S(=O)(=O)c4cc5cc(Cl)ccc5[nH]4)CC3)nc2)ccn1 [Example A-186, 1-[(5-Chloroindol-2-yl)sulfonyl]-4-[[5-(2-methylpyridin-4-yl)pyrimidin-2-yl]carbonyl]piperazine]
